Numbered stars: 1 amine (or outer) side, 2 acyl side, 3 side chain; on linkers, the order of the positions; unused ones are H or OH. Square brackets hold non-standard residues; d marks the D form. Side chains are listed from the residue outwards. Peptide text beside a SMILES is read from it. * marks the point of attachment. γGlu = O=C(O)[C@H](CCC(=O)[*:2])N[*:1]; Desaminotyrosyl = O=C(CCc1ccc(O)cc1)*; Palmitoyl = CCCCCCCCCCCCCCCC(=O)*
How the values were obtained:
GIP receptor [1] = target: T1, GIP receptor (Homo sapiens, UniProt P48546); assay: cAMP induction, firefly luciferase reporter assay in HEK293 cells co-transfected with receptor; assay type: cell-based; conditions: Table 2, analogs of SEQ ID NO: 10
T1 construct: expressed in transfected cells; host or cells: HEK293
T1 sequence (P48546 22-466): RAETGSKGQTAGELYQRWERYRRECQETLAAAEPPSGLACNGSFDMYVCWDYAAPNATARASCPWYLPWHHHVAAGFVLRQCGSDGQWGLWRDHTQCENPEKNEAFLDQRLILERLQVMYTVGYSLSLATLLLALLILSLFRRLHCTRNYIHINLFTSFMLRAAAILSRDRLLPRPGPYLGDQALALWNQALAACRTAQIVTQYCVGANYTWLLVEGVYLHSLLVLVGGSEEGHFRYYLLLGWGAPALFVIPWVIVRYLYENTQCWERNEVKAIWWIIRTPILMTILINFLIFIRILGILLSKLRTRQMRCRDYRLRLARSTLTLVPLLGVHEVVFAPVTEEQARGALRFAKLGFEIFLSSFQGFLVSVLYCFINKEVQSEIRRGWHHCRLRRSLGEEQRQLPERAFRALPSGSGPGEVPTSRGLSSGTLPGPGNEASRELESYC
Method: (§1) The ability of glucagon analogs to induce cAMP was measured in a firefly luciferase-based reporter assay. […] At the end of the incubation 100 microliters of LucLite luminescence substrate reagent (Perkin-Elmer, Wellesley, Mass.) were added to each well. […] Effective 50% concentrations were calculated by using Origin software (OriginLab, Northampton, Mass.

GLP-1 receptor = target: T2, GLP-1 receptor (Homo sapiens, UniProt P43220); assay: as above; assay type: cell-based; conditions: Table 2, analogs of SEQ ID NO: 10
T2 construct: expressed in transfected cells; host or cells: HEK293
Method: as §1

glucagon receptor = target: T3, glucagon receptor (Homo sapiens, UniProt P47871); assay: as above; assay type: cell-based; conditions: Table 2, analogs of SEQ ID NO: 10
T3 construct: expressed in transfected cells; host or cells: HEK293
Method: as §1

GIP receptor [2] = target: T1, GIP receptor; conditions: relative to native GIP; cited from earlier work

T2 sequence (P43220 24-463): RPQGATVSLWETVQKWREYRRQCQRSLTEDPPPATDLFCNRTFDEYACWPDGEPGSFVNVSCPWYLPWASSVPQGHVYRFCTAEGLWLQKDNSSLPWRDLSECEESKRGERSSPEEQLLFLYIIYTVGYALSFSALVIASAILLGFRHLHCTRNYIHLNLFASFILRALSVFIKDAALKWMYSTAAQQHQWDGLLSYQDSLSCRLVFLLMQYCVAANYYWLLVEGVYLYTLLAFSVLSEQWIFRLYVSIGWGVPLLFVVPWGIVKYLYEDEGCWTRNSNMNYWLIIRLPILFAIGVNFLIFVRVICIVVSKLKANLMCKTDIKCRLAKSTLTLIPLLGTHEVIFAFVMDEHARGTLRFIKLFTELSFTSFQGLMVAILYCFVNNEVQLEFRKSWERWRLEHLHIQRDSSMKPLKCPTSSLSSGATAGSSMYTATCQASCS
T3 sequence (P47871 26-477): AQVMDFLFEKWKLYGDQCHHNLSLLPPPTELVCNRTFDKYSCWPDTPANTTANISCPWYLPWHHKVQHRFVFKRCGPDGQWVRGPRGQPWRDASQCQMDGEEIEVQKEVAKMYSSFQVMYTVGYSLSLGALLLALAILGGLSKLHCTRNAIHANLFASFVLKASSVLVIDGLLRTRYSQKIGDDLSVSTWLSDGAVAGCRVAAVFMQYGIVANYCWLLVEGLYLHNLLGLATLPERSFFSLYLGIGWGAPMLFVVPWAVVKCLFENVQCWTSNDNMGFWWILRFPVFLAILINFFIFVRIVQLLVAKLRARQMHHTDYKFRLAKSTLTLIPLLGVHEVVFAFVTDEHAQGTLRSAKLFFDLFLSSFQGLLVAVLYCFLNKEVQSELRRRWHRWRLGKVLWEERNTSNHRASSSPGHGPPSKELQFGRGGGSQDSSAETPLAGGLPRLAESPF

For `CCCCCCCCCCCCCCCC(=O)N[C@@H](CCC(=O)NCCCC[C@H](NC(=O)[C@H](CC(=O)O)NC(=O)[C@H](CO)NC(=O)[C@@H](NC(=O)[C@H](Cc1ccccc1)NC(=O)[C@@H](NC(=O)CNC(=O)[C@H](CCC(N)=O)NC(=O)[C@H](C)NC(=O)[C@H](Cc1ccc(O)cc1)NC(C)=O)[C@@H](C)O)[C@@H](C)O)C(=O)N[C@@H](CO)C(=O)N[C@@H](CCCCN)C(=O)N[C@@H](Cc1ccc(O)cc1)C(=O)N[C@@H](CC(C)C)C(=O)N[C@@H](CC(=O)O)C(=O)N[C@@H](CCC(=O)O)C(=O)N[C@@H](CCCNC(=N)N)C(=O)N[C@@H](C)C(=O)N[C@@H](C)C(=O)N[C@@H](CCC(N)=O)C(=O)N[C@@H](CC(=O)O)C(=O)N[C@@H](Cc1ccccc1)C(=O)N[C@H](C(=O)N[C@@H](CCC(N)=O)C(=O)N[C@@H](Cc1c[nH]c2ccccc12)C(=O)N[C@@H](CC(C)C)C(=O)N[C@@H](CC(C)C)C(=O)N[C@@H](CCC(=O)O)C(=O)NCC(=O)NCC(=O)N1CCC[C@H]1C(=O)N[C@@H](CO)C(=O)N[C@@H](CO)C(=O)NCC(=O)N[C@@H](C)C(=O)N1CCC[C@H]1C(=O)N1CCC[C@H]1C(=O)N1CCC[C@H]1C(=O)N[C@@H](CO)C(N)=O)C(C)C)C(=O)O` [compound 155] (Ac-YAQGTFTSDK([γGlu-Palmitoyl])SKYLDERAAQDFVQWLLEGGPSSGAPPPS-NH2), the EC50 (GIP receptor [1]) was 0.037 nM, the EC50 (GLP-1 receptor) was 0.06 nM and the EC50 (glucagon receptor) was 0.007 nM.
For `CCCCCCCCCCCCCCCC(=O)NCCCC[C@H](NC(=O)[C@H](CO)NC(=O)[C@@H]1CCCN1C(=O)[C@@H]1CCCN1C(=O)[C@@H]1CCCN1C(=O)[C@H](C)NC(=O)CNC(=O)[C@H](CO)NC(=O)[C@H](CO)NC(=O)[C@@H]1CCCN1C(=O)CNC(=O)CNC(=O)[C@H](CCC(=O)O)NC(=O)[C@H](CC(C)C)NC(=O)[C@H](CC(C)C)NC(=O)[C@H](Cc1c[nH]c2ccccc12)NC(=O)[C@H](CCC(N)=O)NC(=O)[C@@H](NC(=O)[C@H](Cc1ccccc1)NC(=O)[C@H](CC(=O)O)NC(=O)[C@H](CCC(N)=O)NC(=O)[C@H](C)NC(=O)[C@H](C)NC(=O)[C@H](CCCNC(=N)N)NC(=O)[C@H](CCC(=O)O)NC(=O)[C@H](CC(=O)O)NC(=O)[C@H](CC(C)C)NC(=O)[C@H](Cc1ccc(O)cc1)NC(=O)[C@H](CCCCN)NC(=O)[C@H](CO)NC(=O)[C@H](Cc1ccc(O)cc1)NC(=O)[C@H](CC(=O)O)NC(=O)[C@H](CO)NC(=O)[C@@H](NC(=O)[C@H](Cc1ccccc1)NC(=O)[C@@H](NC(=O)CNC(=O)[C@H](CCC(N)=O)NC(=O)[C@H](C)NC(=O)CCc1ccc(O)cc1)[C@@H](C)O)[C@@H](C)O)C(C)C)C(=O)NCC(N)=O` [compound 157] (Desaminotyrosyl-AQGTFTSDYSKYLDERAAQDFVQWLLEGGPSSGAPPPSK(Palmitoyl)G-NH2), the EC50 (GIP receptor [1]) was 0.059 nM, the EC50 (GLP-1 receptor) was 0.013 nM and the EC50 (glucagon receptor) was 0.047 nM.
Work on `CCCCCCCCCCCCCCCC(=O)N[C@@H](CCC(=O)NCCCC[C@H](NC(=O)[C@H](CC(=O)O)NC(=O)[C@H](CO)NC(=O)[C@@H](NC(=O)[C@H](Cc1ccccc1)NC(=O)[C@@H](NC(=O)CNC(=O)[C@@H](CCC(N)=O)NC(=O)[C@H](C)NC(=O)[C@H](Cc1ccc(O)cc1)NC(C)=O)[C@@H](C)O)[C@@H](C)O)C(=O)N[C@@H](CO)C(=O)N[C@@H](CCCCN)C(=O)N[C@@H](Cc1ccc(O)cc1)C(=O)N[C@@H](CC(C)C)C(=O)N[C@@H](CC(=O)O)C(=O)N[C@@H](CCC(=O)O)C(=O)N[C@@H](CCCNC(=N)N)C(=O)N[C@@H](C)C(=O)N[C@@H](C)C(=O)N[C@@H](CCC(N)=O)C(=O)N[C@@H](CC(=O)O)C(=O)N[C@@H](Cc1ccccc1)C(=O)N[C@H](C(=O)N[C@@H](CCC(N)=O)C(=O)N[C@@H](Cc1c[nH]c2ccccc12)C(=O)N[C@@H](CC(C)C)C(=O)N[C@@H](CC(C)C)C(=O)N[C@@H](CCC(=O)O)C(=O)NCC(=O)NCC(=O)N1CCC[C@H]1C(=O)N[C@@H](CO)C(=O)N[C@@H](CO)C(=O)NCC(=O)N[C@@H](C)C(=O)N1CCC[C@H]1C(=O)N1CCC[C@H]1C(=O)N1CCC[C@H]1C(=O)N[C@@H](CO)C(N)=O)C(C)C)C(=O)O` [compound 158] (Ac-YA[dQ]GTFTSDK([γGlu-Palmitoyl])SKYLDERAAQDFVQWLLEGGPSSGAPPPS-NH2) yielded an EC50 (GIP receptor [1]) of 0.069 nM, an EC50 (GLP-1 receptor) of 0.349 nM and an EC50 (glucagon receptor) of 0.416 nM.
For `CCCCCCCCCCCCCCCC(=O)N[C@@H](CCC(=O)N[C@@H](CCC(=O)NCCCC[C@H](NC(=O)[C@H](CO)NC(=O)[C@@H]1CCCN1C(=O)[C@@H]1CCCN1C(=O)[C@@H]1CCCN1C(=O)[C@H](C)NC(=O)CNC(=O)[C@H](CO)NC(=O)[C@H](CO)NC(=O)[C@@H]1CCCN1C(=O)CNC(=O)CNC(=O)[C@H](CCC(=O)O)NC(=O)[C@H](CC(C)C)NC(=O)[C@H](CC(C)C)NC(=O)[C@H](Cc1c[nH]c2ccccc12)NC(=O)[C@H](CCC(N)=O)NC(=O)[C@@H](NC(=O)[C@H](Cc1ccccc1)NC(=O)[C@H](CC(=O)O)NC(=O)[C@H](CCC(N)=O)NC(=O)[C@H](C)NC(=O)[C@H](C)NC(=O)[C@H](CCCNC(=N)N)NC(=O)[C@H](CCC(=O)O)NC(=O)[C@H](CC(=O)O)NC(=O)[C@H](CC(C)C)NC(=O)[C@H](Cc1ccc(O)cc1)NC(=O)[C@H](CCCCN)NC(=O)[C@H](CO)NC(=O)[C@H](Cc1ccc(O)cc1)NC(=O)[C@H](CC(=O)O)NC(=O)[C@H](CO)NC(=O)[C@@H](NC(=O)[C@H](Cc1ccccc1)NC(=O)[C@@H](NC(=O)CNC(=O)[C@H](CCC(N)=O)NC(=O)[C@H](C)NC(=O)CCc1ccc(O)cc1)[C@@H](C)O)[C@@H](C)O)C(C)C)C(=O)NCC(N)=O)C(=O)O)C(=O)O` [compound 160] (Desaminotyrosyl-AQGTFTSDYSKYLDERAAQDFVQWLLEGGPSSGAPPPSK([γGlu-γGlu-Palmitoyl])G-NH2), the EC50 (GIP receptor [1]) was 0.086 nM, the EC50 (GLP-1 receptor) was 0.022 nM and the EC50 (glucagon receptor) was 0.049 nM.
With “Ac-[dY]AQGTFTSDYSKYLDERAAQDFVQWLLEAGPSSGAPPPSK([γGlu-γGlu-Palmitoyl])G-NH2 [compound 159]” the EC50 (GIP receptor [1]) was 0.08 nM, the EC50 (GLP-1 receptor) was 0.009 nM and the EC50 (glucagon receptor) was 0.04 nM.
In the case of “Ac-[dY]AQGTFTSDYSKYLDERAAQDFVQWLLEGGPSSGAPPPSK([γGlu-γGlu-Palmitoyl])G-NH2 [compound 149]”, the EC50 (GIP receptor [1]) is reported as 0.008 nM, the EC50 (GLP-1 receptor) is reported as 0.002 nM and the EC50 (glucagon receptor) is reported as 0.012 nM.
For “Native glucagon: native human glucagon (SEQ ID NO: 1)”, the “activity of native GIP at the GIP receptor” value (GIP receptor [2]) is given as about 0%.
